# According to ChEMBL document CHEMBL1201862, “PubChem BioAssay data set” (2004):
#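 Growth conditions: 96-well plates. Treatment: test compound, 48 hours, 5 concentrations. Analysis: linear interpolation between bracketing concentrations; unreached endpoints set to highest concentration. At the GI50, growth is halved.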 Calls of active or inactive are those of the source. No stated cut-off is given here; in the data, active = GI50 up to about 1.1 µM and inactive = higher.
# Tests used:
# Test in all cases: inhibition of tumour cell growth, NCI panel, 48 h
# MDA-MB-231 = tested on: MDA-MB-231
# HCT-116 = tested on: HCT-116
# SF-539 = tested on: SF-539
# NCI-H522 = tested on: NCI-H522
# MOLT-4 = tested on: MOLT-4
# UO-31 = tested on: UO-31
# KM12 = tested on: KM12
# SNB-75 = tested on: SNB-75
# A498 = tested on: A498
# K562 = tested on: K562
# HT-29 = tested on: HT-29
# RXF 393 = tested on: RXF 393
# TK-10 = tested on: TK-10
# RPMI-8226 = tested on: RPMI-8226
# NCI-H23 = tested on: NCI-H23
# A549 = tested on: A549
# NCI-H460 = tested on: NCI-H460
# LOX IMVI = tested on: LOX IMVI
# BT-549 = tested on: BT-549
# MDA-N = tested on: MDA-N
SMILES,GI50 (MDA-MB-231),GI50 (HCT-116),GI50 (SF-539),GI50 (NCI-H522),GI50 (MOLT-4),GI50 (UO-31),GI50 (KM12),GI50 (SNB-75),GI50 (A498),GI50 (K562),GI50 (HT-29),GI50 (RXF 393),GI50 (TK-10),GI50 (RPMI-8226),GI50 (NCI-H23),GI50 (A549),GI50 (NCI-H460),GI50 (LOX IMVI),GI50 (BT-549),GI50 (MDA-N)
O=S(=O)(c1cc(Cl)ccc1Cl)n1ccnc1,23.4 µM (inactive),31.3 µM (inactive),17.4 µM (inactive),27.4 µM (inactive),32.6 µM (inactive),85.5 µM (inactive),33.6 µM (inactive),41.8 µM (inactive),31 µM (inactive),34 µM (inactive),29.2 µM (inactive),28 µM (inactive),24.1 µM (inactive),29 µM (inactive),20.9 µM (inactive),58.2 µM (inactive),25.9 µM (inactive),37.7 µM (inactive),35.4 µM (inactive),–
CN(C)c1ccc(/C=N/Nc2nc3ccccc3c(=O)n2-c2ccccc2)cc1,63 µM (inactive),51.5 µM (inactive),30.4 µM (inactive),44.5 µM (inactive),> 100 µM (inactive),> 100 µM (inactive),> 100 µM (inactive),5.75 µM (inactive),63.2 µM (inactive),> 100 µM (inactive),> 100 µM (inactive),50.8 µM (inactive),> 100 µM (inactive),–,> 100 µM (inactive),> 100 µM (inactive),> 100 µM (inactive),> 100 µM (inactive),–,74.3 µM (inactive)
COc1cc(/C=C2/SC(c3ccccc3)N(c3cccc(NC(C)=O)c3)C2=O)cc(OC)c1OC (stereo not given),–,30.2 µM (inactive),49.3 µM (inactive),18.2 µM (inactive),31.3 µM (inactive),16.6 µM (inactive),39.1 µM (inactive),–,> 100 µM (inactive),35.6 µM (inactive),38.6 µM (inactive),24.8 µM (inactive),> 100 µM (inactive),30.3 µM (inactive),44.9 µM (inactive),47.4 µM (inactive),71.9 µM (inactive),40.3 µM (inactive),44.7 µM (inactive),25.5 µM (inactive)
CC1=C(C#N)C(C#N)(C#N)C(NN(C)C)C1 (stereo not given),14.2 µM (inactive),11 µM (inactive),36.1 µM (inactive),4.07 µM (inactive),18.5 µM (inactive),13.5 µM (inactive),16.6 µM (inactive),21.4 µM (inactive),20.9 µM (inactive),12.2 µM (inactive),15.4 µM (inactive),13 µM (inactive),17 µM (inactive),10.9 µM (inactive),17.1 µM (inactive),41.5 µM (inactive),–,12.6 µM (inactive),–,10.1 µM (inactive)
CC(C)C1CC=NN1C(=O)OC(C)(C)C (stereo not given),–,> 100 µM (inactive),> 100 µM (inactive),> 100 µM (inactive),> 100 µM (inactive),> 100 µM (inactive),> 100 µM (inactive),> 100 µM (inactive),> 100 µM (inactive),> 100 µM (inactive),> 100 µM (inactive),> 100 µM (inactive),> 100 µM (inactive),> 100 µM (inactive),> 100 µM (inactive),> 100 µM (inactive),> 100 µM (inactive),> 100 µM (inactive),–,> 100 µM (inactive)
CCOC(=O)c1c(N)n(-c2ccccc2)c(=O)n(-c2ccccc2)c1=O,> 100 µM (inactive),–,–,> 100 µM (inactive),> 100 µM (inactive),> 100 µM (inactive),> 100 µM (inactive),> 100 µM (inactive),–,> 100 µM (inactive),> 100 µM (inactive),> 100 µM (inactive),> 100 µM (inactive),> 100 µM (inactive),> 100 µM (inactive),> 100 µM (inactive),> 100 µM (inactive),> 100 µM (inactive),> 100 µM (inactive),–
O=C(CC(=O)N1N=C(N(c2ccccc2)c2ccccc2)CC1c1ccccc1)Nc1ccc(Cl)cc1 (stereo not given),> 100 µM (inactive),> 100 µM (inactive),> 100 µM (inactive),> 100 µM (inactive),> 100 µM (inactive),> 100 µM (inactive),> 100 µM (inactive),94 µM (inactive),–,> 100 µM (inactive),> 100 µM (inactive),> 100 µM (inactive),> 100 µM (inactive),> 100 µM (inactive),> 100 µM (inactive),> 100 µM (inactive),> 100 µM (inactive),–,> 100 µM (inactive),–
CC[C@H]1C=CCC[C@@]2(C[C@@H]3CC[C@H]4[C@@H](C(=O)OCCCCCCCCCCCCCCCC(=O)N(CCCNC(C)=O)C[C@H](CCNC(C)=O)OC(C)=O)[C@@]5(CCC[C@@H](C)O5)NC(=[N+]34)N2)O1,–,1.58 µM (inactive),1.48 µM (inactive),1.24 µM (inactive),1.23 µM (inactive),1.78 µM (inactive),1.38 µM (inactive),–,1.83 µM (inactive),0.708 µM (active),1.4 µM (inactive),1.79 µM (inactive),1.56 µM (inactive),0.227 µM (active),1.58 µM (inactive),1.88 µM (inactive),1.6 µM (inactive),1.64 µM (inactive),1.82 µM (inactive),1.69 µM (inactive)
O=c1[nH]c2ccc([N+](=O)[O-])c(Cl)c2c2ccccc12,8.07 µM (inactive),0.313 µM (active),1.1 µM (active),3.13 µM (inactive),0.91 µM (active),9.33 µM (inactive),0.33 µM (active),9.04 µM (inactive),13.2 µM (inactive),0.634 µM (active),0.887 µM (active),–,1.37 µM (inactive),0.586 µM (active),5.87 µM (inactive),4.7 µM (inactive),1.87 µM (inactive),1.68 µM (inactive),4.04 µM (inactive),–
COc1cc2c(cc1OCCCCOc1cc3nc(C)nc(Cl)c3cc1OC)N=C[C@@H]1CCCN1C2=O,1.25 µM (inactive),2.21 µM (inactive),2.04 µM (inactive),0.637 µM (active),1.7 µM (inactive),1.88 µM (inactive),1.89 µM (inactive),1.46 µM (inactive),–,2.07 µM (inactive),2.42 µM (inactive),2.12 µM (inactive),2.34 µM (inactive),–,1.82 µM (inactive),2.79 µM (inactive),3.4 µM (inactive),1.27 µM (inactive),2.17 µM (inactive),–
O=C1/C(=C\c2c(-c3ccccc3)[nH]n(-c3ccccc3)c2=O)C(c2ccccc2)=NN1c1ccccc1,> 100 µM (inactive),> 100 µM (inactive),> 100 µM (inactive),–,> 100 µM (inactive),> 100 µM (inactive),> 100 µM (inactive),> 100 µM (inactive),> 100 µM (inactive),87.5 µM (inactive),> 100 µM (inactive),> 100 µM (inactive),> 100 µM (inactive),> 100 µM (inactive),> 100 µM (inactive),> 100 µM (inactive),> 100 µM (inactive),> 100 µM (inactive),–,> 100 µM (inactive)
